Test results from PMC8217170, “Phase Ib dose-escalation study of the hypoxia-modifier Myo-inositol trispyrophosphate in patients with hepatopancreatobiliary tumors” (Nature Communications, 2021).
Where “and” joins values, the source holds several entries; their conditions need not be identical. Equal values may be shown once.

Columns and labels:
Type in all cases: in vivo, human
[1] = tested on: target lesions of PDAC, CRLM, CCA and HCC; assay: Metabolic radiological response, FDG-PET-CT, EORTC criteria; set-up: key to EORTC response after chemotherapy / EORTC response after ITPP / RespITPP_EORTC / RespChemo_EORTC: CMR = complete metabolic response; PMR = partial metabolic response; SMD = stable metabolic disease; PMD = progressive metabolic disease; Lesion1_pre_TLG / Lesion1_post_TLG / Lesion1_chemo_TLG / Lesion2_pre_TLG / Lesion2_post_TLG / Lesion2_chemo_TLG / Lesion3_pre_TLG / Lesion3_post_TLG / Lesion3_chemo_TLG / Lesion4_pre_TLG / Lesion4_post_TLG / Lesion4_chemo_TLG / Lesion5_pre_TLG / Lesion5_post_TLG / Lesion5_chemo_TLG: unit not given here; conditions: for EORTC response after chemotherapy: chemotherapy subsequent to ITPP; for RespITPP_EORTC / RespChemo_EORTC: EORTC
Protocol: Radiological assessment, consisting of abdominal MRI and FDG-PET-CT, was performed before ITPP administration and after the 3-week treatment course. Where possible, radiological re-evaluation was performed after 3–6 cycles of chemotherapy. Radiological responses were evaluated according to the RECIST 1.1 criteria[56] for MRI and EORTC criteria[57] for FDG-PET-CT imaging.
Then first calculate the sum of diameters (DM) and SUV-activities of radiological target lesions before ITPP (sum_pre), after ITPP (sum_post) and after subsequent chemotherapy (sum_chemo) for assessment of morphological RECIST1.1 (diameter) and metabolical EORTC (SUV activiy) responses.
Patient 1 (dropout after only 2 infusions and subsequent death due to rapid oncological progression) is excluded for radiological assessment due to no follow up imaging available.
In a second step, we calculate percent changes (PC) of diameter and SUV activity between before ITPP, after ITPP and after chemotherapy.

[2] = tested on: VEGFA, ANG1/2, EGF, PECAM1/CD31; assay: Serum angiogenic markers overall, before vs after ITPP
Protocol: Serum angiogenesis markers were quantified by multiplex bead-based immunoassays following provided instructions (LEGENDplex™, Biolegend, San Diego, CA/USA). For biochemical markers, the percentage change comparing before (day 1 0 h) with after (last day 9 h) ITPP treatment was calculated.

VEGFA = assay: Serum angiogenesis marker, multiplex bead-based immunoassay (LEGENDplex); set-up: VEGF: unit not given here; conditions: for VEGF: serum, duplicate wells
[3] = individual patients, lesion 1, after subsequent chemotherapy
[4] = individual patients, lesion 1, post ITPP
[5] = individual patients, lesion 1, pre ITPP (baseline)
[6] = individual patients, lesion 2, after subsequent chemotherapy
[7] = individual patients, lesion 2, post ITPP
[8] = individual patients, lesion 2, pre ITPP (baseline)
[9] = individual patients, lesion 3, after subsequent chemotherapy
[10] = individual patients, lesion 3, post ITPP
[11] = individual patients, lesion 3, pre ITPP (baseline)
[12] = individual patients, lesion 4, after subsequent chemotherapy
[13] = individual patients, lesion 4, post ITPP
[14] = individual patients, lesion 4, pre ITPP (baseline)
[15] = individual patients, lesion 5, after subsequent chemotherapy
[16] = individual patients, lesion 5, post ITPP
[17] = individual patients, lesion 5, pre ITPP (baseline)

O=P1(O)OC2C3OP(=O)(O)OP(=O)(O)OC3C3OP(=O)(O)OP(=O)(O)OC3C2OP(=O)(O)O1 (stereo not drawn) [ITPP, Myo-inositol trispyrophosphate]
EORTC response after chemotherapy ([1]; individual patients, cohort 5, 8750 mg/m2): PMD
EORTC response after ITPP ([1]; individual patients, cohort 6 (10500 mg/m2)): PMD and SMD
EORTC response after chemotherapy ([1]; individual patients, cohort 6, 10500 mg/m2): PMD and PMR and SMD
EORTC response after ITPP ([1]; individual patients, cohort 7 (12390 mg/m2)): PMD and PMR
EORTC response after chemotherapy ([1]; individual patients, cohort 7, 12390 mg/m2): SMD
EORTC response after ITPP ([1]; individual patients, cohort 8 (14500 mg/m2)): PMD and SMD
EORTC response after chemotherapy ([1]; individual patients, cohort 8, 14500 mg/m2): SMD
Lesion1_chemo_SUV [1, 3]: 13.27 and 7.35 and 9.2 and 4.3 and 17.8 and 12.2 and 6.7 and 7.2 and 13.5 and 10.7 and 12.4 and 5.5 and 7.7 and 6.77
Lesion1_chemo_TLG [1, 3]: 4678.1 and 60.2 and 158.8 and 9.1 and 331.5 and 23.3 and 13.1 and 256.8 and 487.3 and 17.2 and 3.8 and 24.1
Lesion1_post_SUV [1, 4]: 17.32 and 8.65 and 4.69 and 14.2 and 13.2 and 10.3 and 8.4 and 9.8 and 10.7 and 12.2 and 18.4 and 13.9 and 18.7 and 7.5 and 12 and 8.8 and 12.7 and 10.8 and 45.7 and 4.25 and 11.68 and 7.7 and 10.67 and 9.79
Lesion1_post_TLG [1, 4]: 7101.9 and 86.3 and 302.7 and 877.7 and 139.3 and 181.7 and 75 and 382.8 and 112.3 and 878.1 and 21.6 and 249.1 and 3441.2 and 63.2 and 62.4 and 4.1 and 71.4 and 2012.6
Lesion1_pre_SUV [1, 5]: 14.29 and 12.03 and 5.25 and 9.2 and 10.8 and 9.1 and 7.6 and 8 and 8.3 and 7 and 14.1 and 9.3 and 12.4 and 9 and 13.2 and 11 and 12.04 and 21.6 and 5.32 and 11.06 and 6.36 and 11.68 and 11.22
Lesion1_pre_TLG [1, 5]: 4372.3 and 124.4 and 1117.7 and 865.6 and 104.9 and 699.3 and 37.5 and 197.8 and 43.3 and 531.1 and 1331.5 and 11.5 and 69 and 261.2 and 492.5 and 34.8 and 58.7 and 2.3 and 148.5 and 3074.9
Lesion2_chemo_SUV [1, 6]: 4.43 and 13.5 and 11.3 and 7.8 and 11.2 and 11 and 7 and 9.4 and 9.6 and 7.5 and 10.3 and 10.5 and 3.4 and 4.42 and 3.74
Lesion2_chemo_TLG [1, 6]: 4.9 and 33.2 and 133.7 and 36.1 and 149.3 and 14.3 and 27.9 and 32.3 and 3.9 and 12.6 and 26.7
Lesion2_post_SUV [1, 7]: 4.64 and 3.03 and 11.4 and 7.9 and 6.6 and 12.3 and 14 and 13.6 and 9 and 9.6 and 8.6 and 8.1 and 8.4 and 10.3 and 40.7 and 6.42 and 6.24 and 10.36 and 3.73
Lesion2_post_TLG [1, 7]: 7.8 and 11.6 and 331.6 and 39.8 and 377.1 and 65.2 and 12.4 and 11.8 and 24.4 and 19.9 and 14.3 and 147.3 and 3.1
Lesion2_pre_SUV [1, 8]: 3.34 and 10.83 and 7.9 and 7.2 and 3.9 and 7.6 and 11.6 and 13 and 5 and 7.8 and 5.5 and 3 and 10.2 and 13.3 and 20.8 and 5.84 and 5.77 and 11.3 and 4.77
Lesion2_pre_TLG [1, 8]: 3.9 and 7.1 and 175.5 and 11.2 and 263.8 and 27.2 and 31.1 and 3.3 and 23.7 and 55 and 21.4 and 24.9 and 86.2 and 13.2
Lesion3_chemo_SUV [1, 9]: 10.68 and 18.07 and 6.5 and 2.3 and 9.2 and 3.6 and 3.1 and 10.9 and 2.7 and 2.5 and 0
Lesion3_chemo_TLG [1, 9]: 308 and 244.4 and 13.2 and 1 and 42.3 and 3.4 and 0.3 and 0
Lesion3_post_SUV [1, 10]: 13.38 and 8.25 and 7.8 and 2.7 and 13 and 9.9 and 13.6 and 3.9 and 32.3 and 10.6 and 2.97 and 3.4
Lesion3_post_TLG [1, 10]: 436.7 and 47.6 and 16.7 and 1.2 and 79.1 and 13.5 and 26.8 and 22.4 and 1.1 and 3.2
Lesion3_pre_SUV [1, 11]: 12.41 and 13.89 and 10.1 and 2.3 and 3.6 and 5.8 and 13.7 and 2.6 and 10.84 and 19.9 and 10.9 and 2.7 and 7.35
Lesion3_pre_TLG [1, 11]: 261.7 and 28.6 and 21.7 and 1 and 13.5 and 3.4 and 72.1 and 179.3 and 22.6 and 0.1 and 3.9
Lesion4_chemo_SUV [1, 12]: 2.5 and 3.2 and 4.7 and 3.72
Lesion4_chemo_TLG [1, 12]: 1.3 and 2.7 and 0 and 46.4
Lesion4_post_SUV [1, 13]: 3.5 and 16.1 and 6.1 and 1.6 and 14.37
Lesion4_post_TLG [1, 13]: 1.3 and 42.9 and 0 and 161.9
Lesion4_pre_SUV [1, 14]: 7.6 and 11.5 and 4.2 and 8.83 and 3.9 and 13.22
Lesion4_pre_TLG [1, 14]: 17.4 and 33.9 and 16.4 and 1.1 and 84.7
Lesion5_chemo_SUV [1, 15]: 2 and 9.1 and 1.4 and 0
Lesion5_chemo_TLG [1, 15]: 3.4 and 0
Lesion5_post_SUV [1, 16]: 6.8 and 10.7 and 1.35 and 6.92
Lesion5_post_TLG [1, 16]: 18.9 and 0 and 11.9
Lesion5_pre_SUV [1, 17]: 7.3 and 11.5 and 6.85 and 3.5 and 3.76
Lesion5_pre_TLG [1, 17]: 7.3 and 4.3 and 0.6 and 2.7
RespITPP_EORTC ([1]; individual patients, metabolic response after ITPP monotherapy): SMD and PMR and PMD
RespChemo_EORTC ([1]; individual patients, metabolic response after subsequent chemotherapy following ITPP): SMD and PMD and PMR
RespITPP_EORTC ([1]; metabolic response after ITPP, per individual patient, cohort c1, tumor c2): SMD and PMR and PMD
RespChemo_EORTC ([1]; metabolic response after chemotherapy following ITPP, per individual patient, cohort c1, tumor c2): SMD and PMD and PMR
Share of patients with decreases in angiogenic markers [2]: ~60%
Share of patients with reduced VEGFA (VEGFA; following ITPP treatment, 27 patients): 44.4%
VEGF (VEGFA; Patient 25, Cohort 8, PDAC, Day 3 post): 30.91
VEGF (VEGFA; Patient 25, Cohort 8, PDAC, Day 9 post): 33.24 and 35.03
VEGF (VEGFA; Patient 26, Cohort 8, PDAC, Day 3 post): 5.98 and 4.62
VEGF (VEGFA; Patient 26, Cohort 8, PDAC, Day 9 post): 11.09 and 13.08
VEGF (VEGFA; Patient 27, Cohort 8, CCC, Day 3 post): 10.87 and 8.9
VEGF (VEGFA; Patient 27, Cohort 8, CCC, Day 9 post): 8.12 and 8.9
VEGF (VEGFA; Patient 28, Cohort 8, CRLM, Day 3 post): 2.84
VEGF (VEGFA; Patient 28, Cohort 8, CRLM, Day 9 post): 2.84
